Source: the supplement of paper PMC10307832

Each cell line was assayed with CO[C@@H]1[C@H](N(C)C(=O)c2ccccc2)C[C@H]2O[C@]1(C)n1c3ccccc3c3c4c(c5c6ccccc6n2c5c31)C(=O)NC4 [Midostaurin] + Cc1nc(NC(=O)N2CCC[C@H]2C(N)=O)sc1-c1ccnc(C(C)(C)C(F)(F)F)c1 [Alpelisib] (partner 2 µM) (assay: relative viability (nuclei count vs DMSO), 5 days (fraction); higher = more cells survive). Conditions: first compound 0.3162 µM.
Procedure, shortened: (§1)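 A single step with final 0.05% Triton X-100, 1% formaldehyde and 1 ug/ml Hoechst fixed the cells and stained nuclei 5 days after treatment. Lung cancer cell lines in 1536-well plates had been treated by pin tool the day after seeding with one drug alone or a fixed anchor-drug dose plus five library-drug doses (not always all listed) in √10 steps, and nuclei were counted on 4× images. Relative viability is the ratio of nuclei in treated wells to nuclei in vehicle wells, taken as the median of duplicate plates.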
HCC-827 was tested, and the relative viability was 1.02. Work on LXF-289 yielded a relative viability of 0.976. With NCI-H23 the relative viability was 0.602. For NCI-H647, the relative viability was 0.672. With CAL-12T the relative viability was 1.09. NCI-H1651 showed a relative viability of 0.902. Work on EPLC-272H yielded a relative viability of 1.05. For NCI-H2228, the relative viability was 0.695. NCI-H1792 was tested, and the relative viability was 0.654. NCI-H1355 showed a relative viability of 0.814. Work on NCI-H3122 yielded a relative viability of 0.878. Cell Line NCI-H1437 has a relative viability of 0.986. With NCI-H1755 the relative viability was 0.694. NCI-H2023 showed a relative viability of 0.583. With HCC-15 the relative viability was 0.925. NCI-H1793 gave a relative viability of 0.662. For PC-14, the relative viability was 0.785. Work on EKVX yielded a relative viability of 0.824. For LC-2-ad, the relative viability was 0.654. In the case of NCI-H1563, the relative viability is reported as 0.78. Work on NCI-H1944 yielded a relative viability of 0.946. In the case of NCI-H1975, the relative viability is reported as 0.38. With RERF-LC-KJ the relative viability was 0.969. With ABC-1 the relative viability was 0.897. NCI-H358 gave a relative viability of 0.768. NCI-H650 gave a relative viability of 0.63. Cell Line PC-3 [JPC-3] has a relative viability of 1.04.

Each cell line was assayed with COc1cc(-c2nn([C@H]3CC[C@H](N4CCN(C(C)=O)CC4)CC3)c3ncnc(N)c23)ccc1NC(=O)c1cc2ccccc2n1C + C[C@]1(O)C[C@@H](c2nc(-c3ccc4ccc(-c5ccccc5)nc4c3)c3c(N)nccn32)C1 [Linsitinib] (partner 1 µM) in the same assay as above. Conditions: first compound 0.0128 µM.
Procedure, shortened: as §1
HCC-827 gave a relative viability of 0.957. For LXF-289, the relative viability was 1.02. For NCI-H23, the relative viability was 0.613. NCI-H647 was tested, and the relative viability was 1.3. CAL-12T showed a relative viability of 0.851. In the case of NCI-H1651, the relative viability is reported as 0.879. With EPLC-272H the relative viability was 1.45. In the case of NCI-H2228, the relative viability is reported as 0.54. Cell Line NCI-H1792 has a relative viability of 0.565. NCI-H1355 showed a relative viability of 0.997. Cell Line NCI-H3122 has a relative viability of 1.1. In the case of NCI-H1437, the relative viability is reported as 0.987. In the case of NCI-H1755, the relative viability is reported as 1.12. Work on NCI-H2023 yielded a relative viability of 0.7. In the case of HCC-15, the relative viability is reported as 0.922. NCI-H1793 showed a relative viability of 0.99. PC-14 was tested, and the relative viability was 0.929. For EKVX, the relative viability was 1.2. LC-2-ad showed a relative viability of 0.659. NCI-H1563 showed a relative viability of 1.24. For NCI-H1944, the relative viability was 1.18. In the case of NCI-H1975, the relative viability is reported as 0.872. Cell Line RERF-LC-KJ has a relative viability of 0.895. For ABC-1, the relative viability was 0.709. Work on NCI-H358 yielded a relative viability of 0.664. NCI-H650 gave a relative viability of 0.854. PC-3 [JPC-3] showed a relative viability of 1.02.

Same assay, conditions: first compound 0.04048 µM
For HCC-827, the relative viability was 1.02. Work on LXF-289 yielded a relative viability of 0.927. NCI-H23 gave a relative viability of 0.417. NCI-H647 gave a relative viability of 1.36. For CAL-12T, the relative viability was 0.533. With NCI-H1651 the relative viability was 1.11. EPLC-272H gave a relative viability of 1.21. NCI-H2228 was tested, and the relative viability was 0.883. NCI-H1792 was tested, and the relative viability was 0.485. For NCI-H1355, the relative viability was 0.867. In the case of NCI-H1437, the relative viability is reported as 1.08. With NCI-H1755 the relative viability was 0.966. NCI-H2023 gave a relative viability of 0.641. In the case of HCC-15, the relative viability is reported as 0.807. NCI-H1793 showed a relative viability of 0.979. PC-14 gave a relative viability of 1.01. EKVX showed a relative viability of 1.12. Work on LC-2-ad yielded a relative viability of 0.846. NCI-H1563 was tested, and the relative viability was 1.12. Work on NCI-H1944 yielded a relative viability of 1.16. NCI-H1975 gave a relative viability of 1.06. Work on RERF-LC-KJ yielded a relative viability of 0.882. ABC-1 was tested, and the relative viability was 0.887. Cell Line NCI-H358 has a relative viability of 0.73. Cell Line NCI-H650 has a relative viability of 1.26. Work on PC-3 [JPC-3] yielded a relative viability of 0.957.

Same assay, conditions: first compound 0.128 µM
In the case of HCC-827, the relative viability is reported as 0.958. LXF-289 was tested, and the relative viability was 0.939. In the case of NCI-H23, the relative viability is reported as 0.612. NCI-H647 gave a relative viability of 1.14. With CAL-12T the relative viability was 0.801. NCI-H1651 was tested, and the relative viability was 0.871. Work on EPLC-272H yielded a relative viability of 0.878. In the case of NCI-H2228, the relative viability is reported as 0.649. In the case of NCI-H1792, the relative viability is reported as 0.392. NCI-H1355 showed a relative viability of 0.918. Cell Line NCI-H3122 has a relative viability of 1. NCI-H1437 showed a relative viability of 0.986. In the case of NCI-H1755, the relative viability is reported as 0.92. Work on NCI-H2023 yielded a relative viability of 0.624. For HCC-15, the relative viability was 0.815. NCI-H1793 gave a relative viability of 0.712. Work on PC-14 yielded a relative viability of 0.938. Work on EKVX yielded a relative viability of 0.918. LC-2-ad gave a relative viability of 0.835. NCI-H1563 showed a relative viability of 1.31. In the case of NCI-H1944, the relative viability is reported as 1.06. For NCI-H1975, the relative viability was 0.837. Work on RERF-LC-KJ yielded a relative viability of 0.878. Cell Line ABC-1 has a relative viability of 0.749. NCI-H358 was tested, and the relative viability was 0.681. With NCI-H650 the relative viability was 0.894. For PC-3 [JPC-3], the relative viability was 0.966.

Same assay, conditions: first compound 1.28 µM
HCC-827 was tested, and the relative viability was 0.995. LXF-289 was tested, and the relative viability was 1.08. With NCI-H23 the relative viability was 0.49. NCI-H647 was tested, and the relative viability was 0.785. Cell Line CAL-12T has a relative viability of 0.74. NCI-H1651 was tested, and the relative viability was 0.638. For EPLC-272H, the relative viability was 1.04. Cell Line NCI-H2228 has a relative viability of 0.643. For NCI-H1792, the relative viability was 0.449. For NCI-H1355, the relative viability was 0.818. Cell Line NCI-H3122 has a relative viability of 0.875. NCI-H1437 showed a relative viability of 0.523. For NCI-H1755, the relative viability was 0.939. In the case of NCI-H2023, the relative viability is reported as 0.531. HCC-15 was tested, and the relative viability was 0.662. With NCI-H1793 the relative viability was 0.545. In the case of PC-14, the relative viability is reported as 0.98. EKVX showed a relative viability of 0.499. LC-2-ad was tested, and the relative viability was 0.681. NCI-H1563 showed a relative viability of 0.903. NCI-H1944 showed a relative viability of 0.839. NCI-H1975 gave a relative viability of 0.407. For RERF-LC-KJ, the relative viability was 0.793. For ABC-1, the relative viability was 0.697. With NCI-H358 the relative viability was 0.462. For NCI-H650, the relative viability was 0.64. Cell Line PC-3 [JPC-3] has a relative viability of 0.997.
